These are literature values, as cited in the CATMoS acute toxicity set (Mansouri et al. 2021).

SMILES strings stand for the structures.

This data set is described as follows: rat acute oral toxicity. To be noted: in vivo. An excerpt: […]The data set underlying the modeling effort for this project was initially compiled by NICEATM and U.S. EPA’s CCTE. Briefly, LD50 data were collected from rat acute oral systemic toxicity tests, including limit tests, ranges/confidence intervals, and discrete LD50 values. The full data set included 21,200 LD50 entries for 15,688 substances. […] Data were reviewed to ensure that LD50 values with obvious errors in the extracted data such as unit conversion errors (e.g., comma and decimal separator misplacements) were either fixed or removed. After this review, 16,209 LD50 values remained. Many of the chemicals represented had multiple LD50 entries, requiring that a single representative value per Chemical Abstracts Service Registry Number (CASRN) identifier be defined to facilitate modeling efforts. Based on ATWG feedback and to define the representative LD50 as a protective value while accounting for the distribution across multiple LD50s, the median of the lowest quartile was computed using only discrete LD50 values (omitting limit test data and range and confidence interval data). A detailed summary of the data compilation is available online on the NICEATM webpage dedicated to the collaborative modeling project (NTP 2020).
[…][…] For categorical designations, limit test and range/confidence interval LD50 data were integrated wherever possible. As such, the number of chemicals with end point values/calls varies across the modeling end points (Table 3) based on whether chemicals had representative LD50 values and/or other data. If a chemical had both, the representative value was used to determine categorical calls rather than limit test data. Some data were useable only for certain end points and categories depending on the thresholds. For example, ranges that spanned multiple hazard categories were considered only for the binary (very toxic/nontoxic) end points and omitted from rendering a determination for hazard category assignment.
[…]The final data set comprising 11,992 chemicals was split into training and evaluation sets […], respectively. This process was performed semirandomly by ordering chemicals based on the five end points (categorical and continuous LD50 values) and partitioning every fourth record into the evaluation set accordingly. This approach was taken to ensure an equivalent distribution of the LD50 values and the different hazard categories between the training and the evaluation sets without supervised sampling of the chemicals based on structures (Figure 1A). The sources of the chemical structures were also kept equivalent between the two sets, with chemical structures obtained from DSSTox, being the highest quality, representing over 75% of each set (Figure 1B).
For the molecule `OCC(F)(F)C(F)(F)C(F)(F)C(F)(F)C(F)(F)C(F)(F)C(F)(F)C(F)F`, the LD50 is 4400 mg/kg.

As for `CC(C)COC(=O)c1ccccc1`, the LD50 is 5600 mg/kg.

On to `CCn1c2c(c3cc(N)ccc31)CCCC2`, for which the LD50 is 198 mg/kg.

Consider `Cc1cnccc1N`, for which the LD50 is 446 mg/kg.

As for `CNC(=O)ON=C1SC(C)C(=O)NC1(C)C` (stereo not drawn), the LD50 was 0.884 mg/kg.

As to `CN(CCCl)c1ccc(C=CC2=[N+](C)c3ccccc3C2(C)C)cc1`, the LD50 was 2260 mg/kg.

For `COP(=S)(OC)Oc1ccc(S(N)(=O)=O)cc1`, the LD50 was 160 mg/kg.

On to `COC(C)CC(=O)O` (stereo not drawn), for which the LD50 was 3030 mg/kg.

As for `Cc1cc(C)c(C)c(C)c1`, the LD50 is 5160 mg/kg.

For `COc1cc([C@@H]2c3cc4c(cc3[C@H](O[C@@H]3O[C@@H]5COC(c6ccccc6)O[C@H]5[C@H](O)[C@H]3O)[C@H]3COC(=O)[C@H]23)OCO4)cc(OC)c1OC` (stereo partly drawn), the LD50 is 823 mg/kg.

Consider `CCc1cc2c(cc1C(C)=O)C(C)(C)CCC2(C)C`, for which the LD50 is 260 mg/kg.

With `Fc1cccc(C(F)(F)F)n1`, the median lethal dose (LD50) was 50 mg/kg.

With `C=C(/C=C/C)C1=C(C)CCCC1(C)C`, the median lethal dose (LD50) is 2920 mg/kg.

In the case of `CCOP(=O)(OCC)SC(C)C`, the LD50 was 179 mg/kg.

In the case of `O=[N+]([O-])c1cc(C(F)(F)F)cc([N+](=O)[O-])c1Cl`, the LD50 is 930 mg/kg.

For the molecule `CCN(CC)CCC(CC=C(C)C)(C(N)=O)c1cccc2ccccc12` (stereo not drawn), the LD50 is 71 mg/kg.

Turning to `CNCCCN`, the LD50 is 951 mg/kg.

`C/C=C/C=C/C=O`: the LD50 is 300 mg/kg.

In the case of `CO[C@@]1(NC(=O)CSCC#N)C(=O)N2C(C(=O)O)=C(CSc3nnnn3C)CS[C@@H]21`, the LD50 was 3200 mg/kg.

Consider `C=CC1(C)CCC(C(C)(C)O)O1` (stereo not drawn), for which the LD50 is 1150 mg/kg.

With `CCOP(=S)(OCC)OC(C)C`, the LD50 was 1000 mg/kg.

For `FC(F)(Cl)C(Cl)Cl`, the LD50 is 3290 mg/kg.

`O=C1CC=C(O)N=N1`: the LD50 was 3900 mg/kg.

On to `CCC(C)(CC)c1cc(N)on1`, for which the LD50 was 144 mg/kg.

`O=[N+]([O-])C=C1SCCN1Cc1ccccc1`: the median lethal dose (LD50) was 1000 mg/kg.

Consider `CN(CCO)CC(O)Cn1cnc2c1c(=O)n(C)c(=O)n2C` (stereo not drawn), for which the median lethal dose (LD50) was 14100 mg/kg.

As for `Cc1ccc(N)cc1Cl`, the 50% lethal dose (LD50) was 655 mg/kg.

In the case of `COC(=O)C1=C(C)NC(C)=C(C(=O)OC/C=C/c2ccccc2)C1c1cccc([N+](=O)[O-])c1` (stereo not drawn), the LD50 is 2970 mg/kg.

As for `COc1cc(C2NC(=O)CCS2)cc(OC)c1OC` (stereo not drawn), the median lethal dose (LD50) was 5400 mg/kg.

`BrCc1cccc(Oc2ccccc2)c1`: the LD50 is 2330 mg/kg.

As for `CCOC(C1=NCC(C)(C)CN1)c1ccc(OC)c(F)c1` (stereo not drawn), the LD50 is 320 mg/kg.

Take `Nc1ccc(C(F)(F)F)cc1NC(=O)c1cccnc1`: the LD50 was 850 mg/kg.

As to `COC(=O)C1=C(C#N)NC(C)=C(C(=O)OC(C)C)C1c1cccc([N+](=O)[O-])c1` (stereo not drawn), the LD50 is 1560 mg/kg.

For the molecule `CC1CC2CN(C)CC(C2O)C1N1CCCC1` (stereo not drawn), the LD50 is 500 mg/kg.

Consider `CC(=O)Nc1ccc(OCC(O)CNC(C)C)cc1` (stereo not drawn), for which the LD50 was 3460 mg/kg.

In the case of `CC(CN1C(=O)N(CC2CO2)C(C)(C)C1=O)OCC1CO1` (stereo not drawn), the LD50 is 1800 mg/kg.

Turning to `Cc1cc(Cl)ccc1NC=O`, the LD50 was 564 mg/kg.

Consider `Cc1c(F)c(F)c2nc(C(F)(F)F)[nH]c2c1F`, for which the LD50 is 3.94 mg/kg.

`ClC1=C(Cl)C2(Cl)C(Cl)=C(Cl)C3C1C(Cl)CC32` (stereo not drawn): the LD50 was 10200 mg/kg.

As for `Cc1c(Cl)c([N+](=O)[O-])c2nc(C(F)(F)F)[nH]c2c1[N+](=O)[O-]`, the LD50 was 105 mg/kg.

For `COP(=S)(OC)SCn1nc(Cl)ccc1=O`, the LD50 was 5 mg/kg.

Consider `CCCCCCCC[N+](CC)(CC)CCOC(=O)C(C1CCCC1)C1CCCC1`, for which the LD50 was 1200 mg/kg.

Regarding `Cc1cc(C2(c3ccc(O)c(C)c3)C(=O)Nc3ccccc32)ccc1O`, the LD50 was 520 mg/kg.

Regarding `Cc1cc(OCC(=O)N[C@@H]2C(=O)N3[C@@H]2SC(C)(C)[C@@H]3C(=O)O)ccc1Cl`, the LD50 was 4000 mg/kg.

Turning to `CC(C)(C)C(O)/C(=C\c1ccc(Cl)cc1Cl)n1cncn1` (stereo not drawn), the LD50 is 474 mg/kg.

As for `COc1ccc2c(=O)c(C)c(C)oc2c1CN(C)C`, the LD50 is 7.8 mg/kg.

On to `COc1ccc(O)cc1`, for which the LD50 is 1600 mg/kg.

Consider `CCOC(=O)C1=C(C)NC(C)=C(C(=O)OCCN2CCCCC2)C1c1cccc([N+](=O)[O-])c1` (stereo not drawn), for which the LD50 was 363 mg/kg.

On to `CCCCCCCCCc1cc(C)cc(Cc2cc(C)cc(CCCCCCCCC)c2O)c1O`, for which the LD50 is 33000 mg/kg.

Regarding `CCCC1=NN(c2ccccc2)C(=O)C1C=O` (stereo not drawn), the LD50 is 765 mg/kg.

With `c1cc(OCC2CO2)ccc1CC1CO1` (stereo not drawn), the LD50 was 4290 mg/kg.

As for `O=C1CCCCC(=O)N1`, the LD50 is 22600 mg/kg.

For the molecule `CC(C)=CCCC(C)=CCCC(=CCCC(C)=CCO)CO`, the LD50 was 10900 mg/kg.
